For five compounds, dTm results are on record in PMC12136037, “Type II kinase inhibitors that target Parkinson’s disease–associated LRRK2” (Science Advances, 2025).

Holding throughout (experiment): DSF 100 kinase selectivity screen;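 further: compound tested at 20 µM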
Holding throughout (assay type): binding

Assay [1] deals with T1, ~100 representative kinases (Homo sapiens, UniProt Q9H2G2).
T1 construct: Recombinant protein kinase domains with a concentration of 2 μM
The method, boiled down:
(§1)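 Each kinase domain, at 2 μM, is mixed with 20 μM test compound and SYPRO Orange in Hepes (20 mM, pH 7.5) with 500 mM NaCl. Temperature is then raised at 3°C/min and fluorescence-monitored unfolding yields the melting temperature change, ΔTm in degrees Celsius.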

For assay [2], the target named is T2, ~100 representative kinases (Homo sapiens, UniProt P68400).
T2 construct: Recombinant protein kinase domains with a concentration of 2 μM
To be noted: Protein CK2A1; average of three replicates. The procedure, abridged: as §1

Assay [3] has as its target T3, ~100 representative kinases (Homo sapiens, UniProt Q9Y243).
T3 construct: Recombinant protein kinase domains with a concentration of 2 μM
The following applies: Protein AKT3; average of three replicates. The procedure, abridged:
as §1

In assay [4] the target is T4, ~100 representative kinases (Homo sapiens, UniProt Q99986).
T4 construct: Recombinant protein kinase domains with a concentration of 2 μM
T4 sequence (Q99986 1-396): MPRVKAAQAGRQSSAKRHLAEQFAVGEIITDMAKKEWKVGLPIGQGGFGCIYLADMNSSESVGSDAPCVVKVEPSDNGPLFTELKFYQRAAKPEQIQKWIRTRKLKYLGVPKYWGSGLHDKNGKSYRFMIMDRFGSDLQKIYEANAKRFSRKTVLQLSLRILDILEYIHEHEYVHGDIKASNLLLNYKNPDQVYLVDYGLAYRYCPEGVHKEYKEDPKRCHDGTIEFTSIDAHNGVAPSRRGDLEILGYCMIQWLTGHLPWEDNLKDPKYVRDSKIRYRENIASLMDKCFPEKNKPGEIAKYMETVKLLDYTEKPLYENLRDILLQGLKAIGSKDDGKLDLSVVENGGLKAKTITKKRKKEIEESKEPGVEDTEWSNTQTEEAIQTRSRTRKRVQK
The following applies: Protein VRK1; DSF; average of three replicates. The method, boiled down:
as §1

The target in assay [5] is T5, ~100 representative kinases (Homo sapiens, UniProt P34947).
T5 construct: Recombinant protein kinase domains with a concentration of 2 μM
To be noted: protein GPRK5; average of three replicates. The method, boiled down:
as §1

For assay [6], the target named is T6, ~100 representative kinases (Homo sapiens, UniProt Q12866).
T6 construct: Recombinant protein kinase domains with a concentration of 2 μM
T6 sequence (Q12866 21-999): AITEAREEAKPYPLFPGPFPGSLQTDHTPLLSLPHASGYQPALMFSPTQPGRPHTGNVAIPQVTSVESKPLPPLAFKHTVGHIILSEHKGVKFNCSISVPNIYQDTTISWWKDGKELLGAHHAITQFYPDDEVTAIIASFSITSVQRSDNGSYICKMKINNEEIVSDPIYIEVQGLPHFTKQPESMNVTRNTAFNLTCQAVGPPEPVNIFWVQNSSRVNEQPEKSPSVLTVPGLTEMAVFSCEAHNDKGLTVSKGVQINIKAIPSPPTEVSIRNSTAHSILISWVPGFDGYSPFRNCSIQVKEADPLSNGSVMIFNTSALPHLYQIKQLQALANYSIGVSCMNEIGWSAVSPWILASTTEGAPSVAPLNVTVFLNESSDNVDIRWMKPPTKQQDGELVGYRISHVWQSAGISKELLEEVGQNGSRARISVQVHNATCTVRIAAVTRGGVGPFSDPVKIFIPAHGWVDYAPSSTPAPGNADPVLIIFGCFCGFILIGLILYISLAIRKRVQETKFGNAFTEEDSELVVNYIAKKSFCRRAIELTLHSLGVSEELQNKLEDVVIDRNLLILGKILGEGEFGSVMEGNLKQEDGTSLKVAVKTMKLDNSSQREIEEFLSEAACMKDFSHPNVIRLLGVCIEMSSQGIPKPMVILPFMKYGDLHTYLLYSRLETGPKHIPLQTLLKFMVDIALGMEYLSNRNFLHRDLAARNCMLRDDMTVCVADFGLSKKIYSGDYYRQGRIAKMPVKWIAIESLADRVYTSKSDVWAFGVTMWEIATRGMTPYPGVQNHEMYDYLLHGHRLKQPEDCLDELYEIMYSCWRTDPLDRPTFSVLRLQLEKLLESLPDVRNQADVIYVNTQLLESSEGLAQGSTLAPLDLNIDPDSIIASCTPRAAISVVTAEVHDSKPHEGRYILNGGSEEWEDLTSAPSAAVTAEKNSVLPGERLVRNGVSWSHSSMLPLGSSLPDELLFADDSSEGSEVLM
The following applies: protein MERTK; average of three replicates. The procedure, abridged: as §1

[7] abbreviates: Protein SLK, DSF, average of three replicates.

Where two headings read alike, the source gives them in different places.

T2 sequence (P68400 whole entry, the tested form may be a part): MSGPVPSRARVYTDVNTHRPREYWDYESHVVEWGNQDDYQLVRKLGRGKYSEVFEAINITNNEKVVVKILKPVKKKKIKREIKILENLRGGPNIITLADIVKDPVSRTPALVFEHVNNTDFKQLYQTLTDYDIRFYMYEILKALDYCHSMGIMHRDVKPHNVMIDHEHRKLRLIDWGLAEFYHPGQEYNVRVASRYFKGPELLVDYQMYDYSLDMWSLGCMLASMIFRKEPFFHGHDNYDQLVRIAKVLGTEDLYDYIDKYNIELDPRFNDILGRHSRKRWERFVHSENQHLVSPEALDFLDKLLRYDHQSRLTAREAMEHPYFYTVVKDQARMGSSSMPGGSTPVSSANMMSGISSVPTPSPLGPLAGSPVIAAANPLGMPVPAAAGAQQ
T1 sequence (Q9H2G2 whole entry, the tested form may be a part): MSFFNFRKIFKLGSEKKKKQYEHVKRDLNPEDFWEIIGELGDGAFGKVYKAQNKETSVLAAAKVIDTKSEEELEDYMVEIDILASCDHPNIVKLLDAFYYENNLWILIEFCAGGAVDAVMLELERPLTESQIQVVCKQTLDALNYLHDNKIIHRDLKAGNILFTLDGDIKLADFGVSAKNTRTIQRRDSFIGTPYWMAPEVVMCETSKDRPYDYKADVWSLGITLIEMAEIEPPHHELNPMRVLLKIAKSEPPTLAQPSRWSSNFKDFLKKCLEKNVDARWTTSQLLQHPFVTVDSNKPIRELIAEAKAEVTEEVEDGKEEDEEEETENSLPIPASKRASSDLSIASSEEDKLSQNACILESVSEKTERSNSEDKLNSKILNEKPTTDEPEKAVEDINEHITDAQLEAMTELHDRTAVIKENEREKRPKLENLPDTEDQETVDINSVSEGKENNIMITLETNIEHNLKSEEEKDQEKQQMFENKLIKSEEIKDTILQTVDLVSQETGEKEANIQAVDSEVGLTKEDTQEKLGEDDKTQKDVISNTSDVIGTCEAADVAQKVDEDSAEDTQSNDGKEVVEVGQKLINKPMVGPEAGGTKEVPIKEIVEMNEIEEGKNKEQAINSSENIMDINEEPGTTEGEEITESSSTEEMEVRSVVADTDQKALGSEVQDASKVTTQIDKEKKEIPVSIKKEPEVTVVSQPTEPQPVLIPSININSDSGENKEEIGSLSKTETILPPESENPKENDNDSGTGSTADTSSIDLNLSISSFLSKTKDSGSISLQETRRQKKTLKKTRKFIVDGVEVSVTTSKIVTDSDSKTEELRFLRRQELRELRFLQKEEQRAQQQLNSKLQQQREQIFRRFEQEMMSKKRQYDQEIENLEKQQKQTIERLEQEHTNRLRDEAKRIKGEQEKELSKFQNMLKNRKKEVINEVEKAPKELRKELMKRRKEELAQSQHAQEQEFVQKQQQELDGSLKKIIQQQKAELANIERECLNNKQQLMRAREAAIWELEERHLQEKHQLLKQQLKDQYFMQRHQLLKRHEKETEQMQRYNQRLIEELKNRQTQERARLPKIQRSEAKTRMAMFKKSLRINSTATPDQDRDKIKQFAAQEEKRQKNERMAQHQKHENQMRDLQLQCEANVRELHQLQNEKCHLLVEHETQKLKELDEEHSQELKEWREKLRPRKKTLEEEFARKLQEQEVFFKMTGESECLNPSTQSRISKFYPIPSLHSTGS
T3 sequence (Q9Y243 whole entry, the tested form may be a part): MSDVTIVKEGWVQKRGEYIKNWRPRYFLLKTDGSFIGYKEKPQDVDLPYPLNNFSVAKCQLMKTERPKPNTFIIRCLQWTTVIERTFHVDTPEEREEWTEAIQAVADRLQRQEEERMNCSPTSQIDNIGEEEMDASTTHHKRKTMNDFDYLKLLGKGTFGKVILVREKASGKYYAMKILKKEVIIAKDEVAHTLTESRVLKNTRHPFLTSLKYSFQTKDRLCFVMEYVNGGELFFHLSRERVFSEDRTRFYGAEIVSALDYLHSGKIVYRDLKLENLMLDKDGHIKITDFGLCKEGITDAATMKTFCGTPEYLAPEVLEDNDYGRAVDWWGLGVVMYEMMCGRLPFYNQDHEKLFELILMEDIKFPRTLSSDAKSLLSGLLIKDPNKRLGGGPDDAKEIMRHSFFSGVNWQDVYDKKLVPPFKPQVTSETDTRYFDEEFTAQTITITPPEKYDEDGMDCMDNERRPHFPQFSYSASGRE
T5 sequence (P34947 whole entry, the tested form may be a part): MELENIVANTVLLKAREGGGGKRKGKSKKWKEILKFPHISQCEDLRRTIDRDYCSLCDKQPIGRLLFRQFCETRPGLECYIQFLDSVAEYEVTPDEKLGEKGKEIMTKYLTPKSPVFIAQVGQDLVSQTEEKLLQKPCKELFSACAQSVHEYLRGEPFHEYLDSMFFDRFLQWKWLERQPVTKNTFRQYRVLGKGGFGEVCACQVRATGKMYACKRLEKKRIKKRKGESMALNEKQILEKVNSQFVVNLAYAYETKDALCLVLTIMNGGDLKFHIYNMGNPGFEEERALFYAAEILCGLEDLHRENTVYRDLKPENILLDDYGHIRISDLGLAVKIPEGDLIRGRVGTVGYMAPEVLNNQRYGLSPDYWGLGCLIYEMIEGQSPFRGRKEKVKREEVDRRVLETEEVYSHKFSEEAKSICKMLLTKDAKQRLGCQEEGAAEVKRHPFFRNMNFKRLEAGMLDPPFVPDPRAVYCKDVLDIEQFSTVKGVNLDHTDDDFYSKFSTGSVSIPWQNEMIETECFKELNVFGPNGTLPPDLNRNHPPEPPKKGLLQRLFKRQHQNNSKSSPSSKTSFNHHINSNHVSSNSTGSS

On to `COc1cc2c(Oc3ccc(NC(=O)C4(C(=O)Nc5ccc(F)cc5)CC4)cc3F)ccnc2cc1OCCCN1CCOCC1` [Foretinib, reference compound], for which the dTm in assay [1] (setting [7]) is recorded as 8.07 K; in assay [2] it was 0.00 K; in assay [3], -0.34 K; in assay [4], 1.05 K; in assay [5], 0.60 K; in assay [6], 13.18 K.
Turning to `CCNc1nc(Nc2cc(F)c(C(=O)N3CCOCC3)cc2OC)ncc1C(F)(F)F` [GNE-7915], the dTm in assay [1] (setting [7]) is listed as 0.62 K; in assay [2], 1.87 K; in assay [3] it was -0.31 K; in assay [4], 0.12 K; in assay [5], 0.32 K; in assay [6], 2.33 K.
Regarding `Cc1ccc(C(=O)Nc2ccc(CN3CCN(C)CC3)c(C(F)(F)F)c2)cc1C#Cc1cnc2[nH]ncc2c1` [GZD-824, reference compound], the dTm in assay [1] is reported as 15.82 K; in assay [2], -1.14 K; in assay [3], -0.88 K; in assay [4] it was 0.0366 K; in assay [5] it was 0.29 K; in assay [6], 5.77 K.
On to `C[C@@H]1CN(c2cc(-c3n[nH]c4ccc(OC5(C)CC5)cc34)ncn2)C[C@H](C)O1` [MLi2], for which the dTm in assay [1] (setting [7]) is on record as -1.23 K; in assay [2], 0.17 K; in assay [3], -0.44 K; in assay [4], 0.11 K; in assay [5], 0.07 K; in assay [6] it was 0.0155 K.
`Cn1cc(-c2c[nH]c3ncnc(N4CCOCC4)c23)cc1C#N` [PFE-360]: the dTm was 3.08 K in assay [1] (setting [7]); 0.25 K in assay [2]; -0.26 K in assay [3]; 0.0159 K in assay [4]; 0.56 K in assay [5]; 0.31 K in assay [6].
